Each compound was assayed against T1, PD-1/PD-L1 (Homo sapiens, UniProt Q9NZQ7) (assay: PD-1/PD-L1 homogeneous time-resolved fluorescence (HTRF) binding assay). Details: Tag 1-PD-L1 / Tag 2-PD-1, Cisbio kit.
T1 construct: purchased Cisbio 63ADK000CPDEC
T1 sequence (Q9NZQ7 19-238 limits assumed): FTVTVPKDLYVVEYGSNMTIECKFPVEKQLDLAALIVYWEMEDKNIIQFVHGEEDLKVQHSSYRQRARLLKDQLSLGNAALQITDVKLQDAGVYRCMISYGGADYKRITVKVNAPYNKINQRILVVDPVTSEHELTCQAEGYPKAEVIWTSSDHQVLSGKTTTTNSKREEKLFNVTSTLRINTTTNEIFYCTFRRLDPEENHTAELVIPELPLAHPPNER
From the text: The PD-1/PD-L1 homogeneous time-resolved fluorescence method is used to detect the binding ability of the compound with PD-L1.
PD-1/PD-L1 binding assay kit (Cisbio, Cat #63ADK000CPDEC) was chosen, which contains two proteins Tag 1-PD-L1 and Tag 2-PD-1, and two antibodies Anti-Tag1-Eu^3+ and Anti-Tag2-XL 665. The principle of detection was: Anti-tag1-Eu^3+ was used as the donor of HTRF, and Anti-Tag2-XL 665 was used as the acceptor of HTRF. When Tag 1-PD-L1 interacts with Tag 2-PD-1, the added HTRF donor and the acceptor are close to each other. After the donor has received the excitation energy, part of the energy was transferred to the acceptor, thus generating 665 nm emission light. […] The inhibitory effect of the compound can be determined by comparing the ratio of 665 nm/620 nm. Tag 1-PD-L1 was diluted with Diluent buffer (cat #62DLBDDF) to a working concentration of 10 nM, Tag 2-PD-1 was diluted with Diluent buffer to a working concentration of 500 nM, Anti-Tag1-Eu^3+ was diluted with detection buffer (cat #62DB1FDG) at a ratio of 1:100, Anti-Tag2-XL 665 was diluted with detection buffer at a ratio of 1:20, and the compound to be detected was diluted with diluent buffer to a final concentration of 2×. Compound (2 μL) was added to each well of a 384-well plate, then Tag 1-PD-L1 (4 μL) and Tag 2-PD-1 (4 μL) were added successively. The mixture was incubated at room temperature for 15 minutes. Then Anti-Tag1-Eu^3+ (5 μL) and Anti-Tag2-XL 665 (5 μL) were added, and the mixture was incubated overnight at room temperature. BioTek Synergy™ Neo2 multifunctional microplate reader was used to detect so as to provide the 665 nm/620 nm ratio. PrismGraphd 5.02 was used to fit the IC50 curve.
COc1nc(CNCCO)nc2c1CN(c1cccc(-c3ccccc3)c1Cl)C2 [Compound 5, 2-(((6-(2-Chloro-[1,1′-biphenyl]-3-yl)-4-methoxy-6,7-dihydro-5H-pyrrolo[3,4-d)pyrimidin-2-yl)methyl)amino)ethane-1-ol] was tested, and the IC50 was < 0.1 µM. An IC50 of 0.1 to 1 µM was found for Cc1c(-c2ccccc2)cccc1-n1cc2cc(CNCCO)cc(C#N)c2n1 [Compound 9, (((2-Hydroxyethyl)amino)methyl)-2-(2-methyl-[1,1′-biphenyl]-3-yl)-2H-indazole-7-carbonitrile] in this work. For COc1nc(CN2CCCC[C@H]2C(=O)O)nc2c1CN(c1cccc(-c3ccccc3)c1Cl)C2 [Compound 6, (S)-1-((6-(2-Chloro-[1,1′-biphenyl]-3-yl)-4-methoxy-6,7-dihydro-5H-pyrrolo[3,4-d)pyrimidin-2-yl)methyl)piperidine-2-carboxylic acid], the IC50 was < 0.1 µM. An IC50 of 0.1 to 1 µM was found for OCCNCc1cnc2nn(-c3cccc(-c4ccccc4)c3Cl)cc2c1 [Compound 1, 2-(((2-(2-Chloro-[1,1′-biphenyl]-3-yl)-2H-pyrazolo[3,4-b]pyridin-5-yl)methyl)amino) ethane-1-ol] in this work. COc1cc(CNCCO)cc2c1CN(c1cccc(-c3ccccc3)c1Cl)C2 [Compound 10, 2-(((2-(2-Chloro-[1,1′-biphenyl]-3-yl)-7-methoxyisoindolin-5-yl)methyl)amino)ethane-1-ol] was tested, and the IC50 was < 0.1 µM.

Source: patent US20220056023A1, “PREPARATION AND APPLICATION OF CLASS OF N-CONTAINING HETEROCYCLIC COMPOUNDS HAVING IMMUNOREGULATORY FUNCTION” (SHANGHAI ENNOVABIO PHARMACEUTICALS CO., LTD., priority 2018, published 2022)
